In patent US12624023B2, “Sulfonylurea derivatives and uses thereof” (NodThera Limited, priority 2019, dated 2026) one finds IC50 data, which are given here for 24 molecules.

Some results are limits rather than exact numbers.

Assay [1] deals with IL-1β release upon NLRP3 activation in peripheral blood mononuclear cells (PBMC). Kind of assay: PBMC IC50 determination assay (IL-1β release, LPS priming + ATP stimulation, HTRF). Particulars: PBMC from buffy coats; LPS 1 μg/ml 3 h, compound 30 min, ATP 5 mM 1 h; IL-1β by HTRF. The format is cell-based. Here is the method:
The compounds of the present disclosure were tested for their inhibitory activity against IL-1β release upon NLRP3 activation in peripheral blood mononuclear cells (PBMC).
PBMC were isolated from buffy coats by density gradient centrifugation on Histopaque-1077 (Sigma, cat no. 10771). Isolated cells were seeded into the wells (280,000 cells/well) of a 96-well plate and incubated for 3 h with lipopolysaccharide (LPS, 1 μg/ml diluted 1000× from a 1 mg/ml stock solution). The compounds of the present disclosure were added (a single compound per well) and the cells were incubated for 30 min. Next, the cells were stimulated with ATP (5 mM final concentration diluted 20× from a 100 mM stock solution) for 1 h and the cell culture media from the wells were collected for further analysis.
The release of IL-1β into the media was determined by quantitative detection of IL-1β in the media using HTRF®, CisBio cat. No. 62HIL1BPEH. Briefly, cell culture supernatant were dispensed directly into the assay plate containing antibodies labelled with the HTRF® donor and acceptor. A microplate spectrophotometer (BMG) was used to detect signals at 655 nm and 620 nm. The detection range of IL-1β HTRF® was […].

Assay [2] concerns IL-1β release upon NLRP3 activation in human whole blood. Kind of assay: Whole blood (WB) assay (IL-1β release, LPS priming + ATP stimulation, HTRF). It is filed as cell-based. The following applies: heparin, diluted 9:5 with media, LPS 1 μg/ml 3 h, compound 30 min, ATP 5 mM 1 h, IL-1β by HTRF. Here is the method: The compounds of the present disclosure were tested for their inhibitory activity against IL-1β release upon NLRP3 activation in human whole blood.
Whole blood was drawn from single healthy donors and treated with sodium heparin anticoagulant. Blood was diluted with cell culture media at a 9:5 ratio, seeded in a 96-well plate and incubated for 3 h with lipopolysaccharide (LPS, 1 μg/ml final concentration diluted 1000× from a 1 mg/ml stock solution). The compounds of the present disclosure were added (a single compound concentration per well) and the blood was incubated for 30 min. Next, the blood was stimulated with ATP (5 mM final concentration diluted 20× from a 100 mM stock solution) for 1 h and the cell culture media from the wells were collected for further analysis.
The release of IL-1β into the media was determined by quantitative detection of IL-1β in the media using HTRF®, CisBio cat. No. 62HIL1BPEH. Briefly, cell culture supernatant were diluted as appropriate to bring IL-1β levels within the HTRF® detection range ([…]) and subsequently dispensed into the assay plate containing antibodies labelled with the HTRF® donor and acceptor. A microplate spectrophotometer (BMG) was used to detect signals at 655 nm and 620 nm.

One may read the IC50 as the concentration that gives 50% inhibition. Consider `CCc1cc(CC)c(NC(=O)NS(=O)(=O)N(c2cnn(C)c2)C2CCCN(C)C2)s1` (stereo not drawn) [Compound 29, 3-(3,5-Diethylthiophen-2-yl)-1-[(1-methyl-1H-pyrazol-4-yl)(1-methylpiperidin-3-yl)sulfamoyl]urea], for which the IC50 in assay [1] is 0.1 to 0.5 µM; in assay [2] it was 1 to 3 µM.

As to `Cc1sc2c(c1NC(=O)NS(=O)(=O)N(c1cnn(C)c1)C1CCCN(C)C1)CCC2` (stereo not drawn) [Compound 32, 1-[(1-Methyl-1H-pyrazol-4-yl)(1-methylpiperidin-3-yl)sulfamoyl]-3-{2-methyl-4H,5H,6H-cyclopenta[b]thiophen-3-yl}urea], the IC50 is 0.1 to 0.5 µM in assay [1] and < 1 µM in assay [2].

Turning to `CC(C)c1sc(C2CC2)cc1NC(=O)NS(=O)(=O)N(c1cnn(C)c1)C1CCCN(C)C1` (stereo not drawn) [Compound 37, 3-[5-Cyclopropyl-2-(propan-2-yl)thiophen-3-yl]-1-[(1-methyl-1H-pyrazol-4-yl)(1-methylpiperidin-3-yl)sulfamoyl]urea], the IC50 in assay [1] was < 0.1 µM; in assay [2], 1 to 3 µM.

With `CC(C)c1cc(NC(=O)NS(=O)(=O)N(c2cnn(C)c2)C2CCCN(C)C2)c(C2CC2)s1` (stereo not drawn) [Compound 38, 3-[2-Cyclopropyl-5-(propan-2-yl)thiophen-3-yl]-1-[(1-methyl-1H-pyrazol-4-yl)(1-methylpiperidin-3-yl)sulfamoyl]urea], the IC50 in assay [1] was < 0.1 µM; in assay [2] it was 1 to 3 µM.

`CC(C)c1cc(NC(=O)NS(=O)(=O)N(c2cnn(C)c2)C2CCN(C)CC2)c(C(C)C)s1` [Compound 43, 3-[2,5-Bis(propan-2-yl)thiophen-3-yl]-1-[(1-methyl-1H-pyrazol-4-yl)(1-methyl-piperidin-4-yl)sulfamoyl]urea]: the IC50 in assay [1] is < 0.1 µM; in assay [2] it was < 1 µM.

For `CC(C)c1cc(NC(=O)NS(=O)(=O)N(c2cnn(C)c2)C2CCCN(C)C2)c(Cl)s1` (stereo not drawn) [Compound 50, 3-[2-Chloro-5-(propan-2-yl)thiophen-3-yl]-1-[(1-methyl-1H-pyrazol-4-yl)(1-methylpiperidin-3-yl)sulfamoyl]urea], the IC50 in assay [1] lay in the range of 0.5 to 1 µM; in assay [2], 1 to 3 µM.

With `CC(C)c1cc(C(C)C)c(NC(=O)NS(=O)(=O)N(c2cnn(C)c2)C2CCCN(C)C2)s1` (stereo not drawn) [Compound 52, 3-[3,5-Bis(propan-2-yl)thiophen-2-yl]-1-[(1-methyl-1H-pyrazol-4-yl)(1-methyl-piperidin-3-yl)sulfamoyl]urea], the IC50 is < 0.1 µM in assay [1] and 1 to 3 µM in assay [2].

On to `CC(C)c1cc(NC(=O)NS(=O)(=O)N(C[C@@H]2C[C@@H](F)CN2C)c2cnn(C)c2)c(C(C)C)s1` [Compound 53], for which the IC50 in assay [1] was < 0.1 µM; in assay [2], 1 to 3 µM.

Take `CC(C)c1cc(NC(=O)NS(=O)(=O)N(c2cnn(C)c2)[C@@H]2CCCN(C)C2)c(C(C)C)s1` [Compound 54, 3-[2,5-Bis(propan-2-yl)thiophen-3-yl]-1-[(1-methyl-1H-pyrazol-4-yl)[(3R)-1-methylpiperidin-3-yl]sulfamoyl]urea]: the IC50 in assay [1] was < 0.1 µM; in assay [2] it was < 1 µM.

With `CC(C)c1cc(NC(=O)NS(=O)(=O)N(c2cnn(C(C)C)c2)[C@@H]2CCCN(C)C2)c(C(C)C)s1` [Compound 55, 3-[2,5-Bis(propan-2-yl)thiophen-3-yl]-1-{[(3R)-1-methylpiperidin-3-yl][1-(propan-2-yl)-1H-pyrazol-4-yl]sulfamoyl}urea], the IC50 in assay [1] is < 0.1 µM; in assay [2], < 1 µM.

For `CC(C)c1cc(NC(=O)NS(=O)(=O)N(c2cnn(C)c2)[C@H]2CCCN(C)C2)c(C(C)C)s1` [Compound 56, 3-[2,5-Bis(propan-2-yl)thiophen-3-yl]-1-[(1-methyl-1H-pyrazol-4-yl)[(3S)-1-methylpiperidin-3-yl]sulfamoyl]urea], the IC50 in assay [1] was < 0.1 µM; in assay [2], < 1 µM.

Turning to `Cc1sc(C(C)C)cc1NC(=O)NS(=O)(=O)N(c1cnn(C)c1)[C@@H]1CCCN(C)C1` [Compound 57, 1-[(1-Methyl-1H-pyrazol-4-yl)[(3R)-1-methylpiperidin-3-yl]sulfamoyl]-3-[2-methyl-5-(propan-2-yl)thiophen-3-yl]urea], the IC50 in assay [1] lay in the range of 0.1 to 0.5 µM; in assay [2], 1 to 3 µM.

For the molecule `CCc1sc(C(C)C)cc1NC(=O)NS(=O)(=O)N(c1cnn(C)c1)[C@@H]1CCCN(C)C1` [Compound 58, 3-[2-Ethyl-5-(propan-2-yl)thiophen-3-yl]-1-[(1-methyl-1H-pyrazol-4-yl)[(3R)-1-methylpiperidin-3-yl]sulfamoyl]urea], the figures for the IC50 in assay [1] and in assay [2] were < 0.1 µM and < 1 µM, respectively.

Take `CC(C)c1cc(NC(=O)NS(=O)(=O)N(c2cnn(C3CC3)c2)[C@@H]2CCCN(C)C2)c(C(C)C)s1` [Compound 59, 3-[2,5-Bis(propan-2-yl)thiophen-3-yl]-1-[(1-cyclopropyl-1H-pyrazol-4-yl)-[(3R)-1-methylpiperidin-3-yl]sulfamoyl]urea]: the IC50 in assay [1] is < 0.1 µM; in assay [2] it was 1 to 3 µM.

As to `CC(C)c1sc(Cl)cc1NC(=O)NS(=O)(=O)N(c1cnn(C)c1)[C@@H]1CCCN(C)C1` [Compound 60, 3-[5-Chloro-2-(propan-2-yl)thiophen-3-yl]-1-[(1-methyl-1H-pyrazol-4-yl)-[(3R)-1-methylpiperidin-3-yl]sulfamoyl]urea], the IC50 in assay [1] was < 0.1 µM; in assay [2] it was < 1 µM.

Take `CCc1cc(NC(=O)NS(=O)(=O)N(c2cnn(C)c2)[C@@H]2CCCN(C)C2)c(C(C)C)s1` [Compound 61, 3-[5-Ethyl-2-(propan-2-yl)thiophen-3-yl]-1-[(1-methyl-1H-pyrazol-4-yl)[(3R)-1-methylpiperidin-3-yl]sulfamoyl]urea]: the IC50 was < 0.1 µM in assay [1] and 3 to 10 µM in assay [2].

As to `CCc1cc(NC(=O)NS(=O)(=O)N(C[C@@H]2C[C@@H](F)CN2C)c2cnn(C)c2)c(CC)o1` [Compound 62, 1-(2,5-Diethylfuran-3-yl)-3-({[(2S,4R)-4-fluoro-1-methylpyrrolidin-2-yl]methyl}(1-methyl-1H-pyrazol-4-yl)sulfamoyl)urea], the IC50 in assay [1] lay in the range of 0.5 to 1 µM; in assay [2], 1 to 3 µM.

Turning to `CCc1cc(NC(=O)NS(=O)(=O)N(CCN(C)C)c2cnn(C(C)C)c2)c(CC)o1` [Compound 64, 3-(2,5-Diethylfuran-3-yl)-1-{[2-(dimethylamino)ethyl][1-(propan-2-yl)-1H-pyrazol-4-yl]sulfamoyl}urea], the IC50 lay within 1 to 5 µM in assay [1] and 10 to 20 µM in assay [2].

For `CCc1cc(NC(=O)NS(=O)(=O)N(c2cnn(C)c2)C2CCOCC2)c(CC)o1` [Compound 65, 3-(2,5-Diethylfuran-3-yl)-1-[(1-methyl-1H-pyrazol-4-yl)(oxan-4-yl)sulfamoyl]-urea], the figures for the IC50 in assay [1] and in assay [2] were 1 to 5 µM and > 20 µM, respectively.

On to `Cc1cc(NC(=O)NS(=O)(=O)N(c2cnn(C)c2)[C@@H]2CCCN(C)C2)c(C(C)C)s1` [Compound 66, 1-[(1-Methyl-1H-pyrazol-4-yl)[(3R)-1-methylpiperidin-3-yl]sulfamoyl]-3-[5-methyl-2-(propan-2-yl)thiophen-3-yl]urea], for which the IC50 in assay [1] was < 0.1 µM; in assay [2], < 1 µM.

Consider `Cc1c(C(C)C)sc(C(C)C)c1NC(=O)NS(=O)(=O)N(c1cnn(C)c1)[C@@H]1CCCN(C)C1` [Compound 67, 1-[(1-Methyl-1H-pyrazol-4-yl)[(3R)-1-methylpiperidin-3-yl]sulfamoyl]-3-[4-methyl-2,5-bis(propan-2-yl)thiophen-3-yl]urea], for which the IC50 in assay [1] is 0.1 to 0.5 µM; in assay [2], < 1 µM.

On to `CCc1cc(NC(=O)NS(=O)(=O)N(C2CCOC2)C2CCCN(C)C2)c(CC)s1` (stereo not drawn) [Compound 69, 3-(2,5-Diethylthiophen-3-yl)-1-[(1-methylpiperidin-3-yl)(oxolan-3-yl)-sulfamoyl]urea], for which the IC50 in assay [1] was > 10 µM; in assay [2], > 20 µM.

With `CC(C)c1sc2c(c1NC(=O)NS(=O)(=O)N(c1cnn(C)c1)[C@@H]1CCCN(C)C1)CCC2` [Compound 70, 1-[(1-Methyl-1H-pyrazol-4-yl)[(3R)-1-methylpiperidin-3-yl]sulfamoyl]-3-[2-(propan-2-yl)-4H,5H,6H-cyclopenta[b]thiophen-3-yl]urea], the IC50 was 0.1 to 0.5 µM in assay [1] and < 1 µM in assay [2].

With `CCc1cc(NC(=O)NS(=O)(=O)N(c2cnn(C(C)C)c2)[C@@H]2CCCN(C)C2)c(CC)o1` [Compound 71, 3-(2,5-Diethylfuran-3-yl)-1-{[(3R)-1-methylpiperidin-3-yl][1-(propan-2-yl)-1H-pyrazol-4-yl]sulfamoyl}urea], the IC50 fell in the range of 0.1 to 0.5 µM in assay [1] and 1 to 3 µM in assay [2].
